Assays:
Format in all cases: cell-based, human
Target C [1] = assay: HiBiT protein abundance assay, Target C; details: Homo sapiens, K562, 24 h, Table 13A, modified K562 cells
How it was run: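 Target tagged with HiBiT by knock-in; 24 h dosing, 10 μM top final in 3-fold steps. IC50 from 4PL fit of normalized luminescence.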

SMN2 = assay: Splicing RT-qPCR panel, SMN2 canonical junction (CJ) mRNA; details: Homo sapiens, RT-qPCR panel, canonical junction mRNA; compound concentration having 50% response in CJ decrease; read-out: SMN2 IC50 (decrease in CJ mRNA levels)
How it was run: (§1)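 Splice switching is measured in A673 or K562 cells after 24 h compound exposure (maximum 10 uM, 3-fold steps). Canonical and alternative junction mRNA levels are quantified by RT-qPCR relative to housekeeper and DMSO.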

Target C [2] = assay: Splicing RT-qPCR panel, Target C canonical junction (CJ) mRNA; details: Homo sapiens, RT-qPCR panel, canonical junction mRNA; compound concentration having 50% response in CJ decrease; read-out: Target C IC50 (decrease in CJ mRNA levels)
How it was run: as §1

HTT [3] = assay: Splicing RT-qPCR assay, HTT mRNA canonical junction (CJ) and alternative junction (AJ); details: Homo sapiens; for AC50: increase in AJ mRNA
How it was run: as §1

HTT [4] = assay: HiBiT protein abundance assay, HTT; details: Homo sapiens, K562, 24 h, Table 13A, modified K562 cells
How it was run: (§2)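 Tagged-target degradation assay: HiBiT-modified K562 cells treated 24 h with compound, 10 concentrations up to 10 μM final. Following lysis with LgBiT and substrate, luminescence gave normalized abundance; IC50 derived by logistic interpolation at 50%.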

MYB [5] = assay: HiBiT protein abundance assay, MYB; details: Homo sapiens, K562, 24 h, Table 13A, modified K562 cells
How it was run: as §2

MYB [6] = assay: Splicing RT-qPCR assay, MYB mRNA canonical junction (CJ) and alternative junction (AJ); details: Homo sapiens; for AC50: increase in AJ mRNA
How it was run: as §1

[7] = 24 h, decrease in CJ mRNA, A673 or K562 cells, 24 hours treatment, RT-qPCR, read-out: HTT CJ IC50
[8] = 24 h, A673 or K562 cells, 24 hours treatment, RT-qPCR
[9] = RT-qPCR panel, canonical junction mRNA, compound concentration having 50% response in CJ decrease, read-out: HTT IC50 (decrease in CJ mRNA levels)
[10] = 24 h, decrease in CJ mRNA, A673 or K562 cells, 24 hours treatment, RT-qPCR, read-out: MYB CJ IC50
[11] = RT-qPCR panel, canonical junction mRNA, compound concentration having 50% response in CJ decrease, read-out: MYB IC50 (decrease in CJ mRNA levels)

| SMILES | IC50 (Target C [1]) [µM] | IC50 (SMN2) [µM] | IC50 (Target C [2]) [µM] | IC50 (HTT [3]; [7]) [µM] | AC50 (HTT [3]; [8]) [µM] | IC50 (HTT [3]; [9]) [µM] | IC50 (HTT [4]) [µM] | IC50 (MYB [5]) [µM] | IC50 (MYB [6]; [10]) [µM] | AC50 (MYB [6]; [8]) [µM] | IC50 (MYB [6]; [11]) [µM] |
| --- | --- | --- | --- | --- | --- | --- | --- | --- | --- | --- | --- |
| c1nc2c(-c3cn[nH]c3)ccc(-c3ccc(N4CCC45CCNC5)nn3)c2s1 (stereo not drawn) [Compound 277] | 1 to 10 | > 10 | > 10 | > 10 | > 10 | > 10 | > 10 | 1 to 10 | > 10 | > 10 | > 10 |
| c1cnn(-c2ccc(-c3ccc(N[C@@H]4C[C@H]5CC[C@@H](C4)N5)nn3)c3[nH]ncc23)c1 [Compound 278] | < 0.1 | < 0.1 | 0.1 to 1 |  | 0.1 to 1 | < 0.1 | < 0.1 | 0.1 to 1 | 0.1 to 1 | 0.1 to 1 | 0.1 to 1 |
| CN(c1ccc(-c2ccc(-c3ccn(C)c(=O)c3)c3ncsc23)nn1)C1CC(C)(C)NC(C)(C)C1 [Compound 279] | 1 to 10 | 0.1 to 1 | > 10 | 1 to 10 | 1 to 10 | 1 to 10 | 1 to 10 | 1 to 10 | 1 to 10 | > 10 | 1 to 10 |
| COc1cc(-c2ccc(-c3ccc(N(C)C4CC(C)(C)NC(C)(C)C4)nn3)c3scnc23)ccn1 [Compound 280] | 0.1 to 1 | 0.1 to 1 | 1 to 10 | 0.1 to 1 | 0.1 to 1 | 0.1 to 1 | < 0.1 | 0.1 to 1 | 1 to 10 | 1 to 10 | 1 to 10 |
| CN(c1ccc(-c2ccc(-c3ccc(=O)n(C)c3)c3ncsc23)nn1)C1CC(C)(C)NC(C)(C)C1 [Compound 281] | 1 to 10 | 0.1 to 1 | > 10 | > 10 | > 10 | > 10 | 1 to 10 | 1 to 10 | 1 to 10 | > 10 | 1 to 10 |
| c1nc2c(-c3cn[nH]c3)ccc(-c3ccc(N(C4CCNCC4)C4CC4)nn3)c2s1 [Compound 283] | 1 to 10 | 1 to 10 | 1 to 10 | 1 to 10 | 1 to 10 | 1 to 10 | 1 to 10 | 0.1 to 1 | > 10 | > 10 | > 10 |
| CC1(C)CC(N(c2ccc(-c3ccc(-c4cn[nH]c4)c4ncsc34)nn2)C2CC2)CC(C)(C)N1 [Compound 284] | 1 to 10 | 0.1 to 1 | 1 to 10 | 0.1 to 1 | 0.1 to 1 | 0.1 to 1 | 0.1 to 1 | 0.1 to 1 | 0.1 to 1 | > 10 | 0.1 to 1 |
| CN(C)[C@H]1[C@@H]2CN(c3ccc(-c4ccc(-c5cn[nH]c5)c5ncsc45)nn3)C[C@@H]21 [Compound 285] | > 10 | 0.1 to 1 | > 10 | > 10 | 1 to 10 | > 10 | 1 to 10 | 1 to 10 | > 10 | > 10 | > 10 |
| CN1CCC12CCN(c1ccc(-c3ccc(-c4cn[nH]c4)c4ncsc34)nn1)C2 (stereo not drawn) [Compound 287] | 1 to 10 | 0.1 to 1 | > 10 | > 10 | > 10 | > 10 | 1 to 10 | 0.1 to 1 | > 10 | > 10 | > 10 |
| CN1CCCC2(CCN2c2ccc(-c3ccc(-c4cn[nH]c4)c4ncsc34)nn2)C1 (stereo not drawn) [Compound 288] | 1 to 10 | 1 to 10 | > 10 | > 10 | > 10 | > 10 | 1 to 10 | 0.1 to 1 | > 10 | > 10 | > 10 |
| CN1CCC2(CC1)CCN2c1ccc(-c2ccc(-c3cn[nH]c3)c3ncsc23)nn1 [Compound 289] | > 10 | > 10 | > 10 | > 10 | > 10 | > 10 | 1 to 10 | 0.1 to 1 | 1 to 10 | > 10 | 1 to 10 |
| [2H]C([2H])([2H])N(c1ccc(-c2ccc(-c3cn[nH]c3)c3cn[nH]c23)nn1)C1CC(C)(C)NC(C)(C)C1 [Compound 292] | 0.1 to 1 | < 0.1 | 1 to 10 | 0.1 to 1 | 0.1 to 1 | 0.1 to 1 | 0.1 to 1 | 0.1 to 1 | 0.1 to 1 | 1 to 10 | 0.1 to 1 |
| CCN(c1ccc(-c2ccc(-c3cn[nH]c3)c3cn[nH]c23)nn1)C1CC(C)(C)NC(C)(C)C1 [Compound 293] | 1 to 10 | 0.1 to 1 | > 10 | 1 to 10 | 1 to 10 | 1 to 10 | 1 to 10 | 1 to 10 | 1 to 10 | > 10 | 1 to 10 |
| CN(c1ccc(-c2ccc(-c3cn[nH]c3)c3cn[nH]c23)nn1)[C@@H]1C[C@H]2CCC[C@@H](C1)N2 [Compound 295] | < 0.1 | < 0.1 | < 0.1 |  | < 0.1 | < 0.1 | < 0.1 | < 0.1 | < 0.1 | 0.1 to 1 | < 0.1 |
| [2H]C([2H])([2H])N(c1ccc(-c2ccc(-c3cn[nH]c3)c3cn[nH]c23)nn1)[C@@H]1C[C@H]2CCC[C@@H](C1)N2 [Compound 296] | < 0.1 | < 0.1 | < 0.1 |  | < 0.1 | < 0.1 | < 0.1 | < 0.1 | 0.1 to 1 | < 0.1 | 0.1 to 1 |
| CCN(c1ccc(-c2ccc(-c3cn[nH]c3)c3cn[nH]c23)nn1)[C@@H]1C[C@H]2CCC[C@@H](C1)N2 [Compound 297] | 0.1 to 1 | < 0.1 | 0.1 to 1 | 0.1 to 1 | 0.1 to 1 | 0.1 to 1 | 0.1 to 1 | 0.1 to 1 | 0.1 to 1 | 0.1 to 1 | 0.1 to 1 |
| CCN(c1ccc(-c2ccc(-c3cn[nH]c3)c3cn[nH]c23)nn1)[C@@H]1C[C@H]2CC[C@@H](C1)N2 [Compound 300] | 0.1 to 1 | 0.1 to 1 | 0.1 to 1 | 0.1 to 1 | 0.1 to 1 | 0.1 to 1 | 0.1 to 1 | 0.1 to 1 | 1 to 10 | 0.1 to 1 | 1 to 10 |
| CN(c1ccc(-c2ccc(-c3cn[nH]c3)c3cn[nH]c23)nn1)[C@H]1[C@@H]2CNC[C@@H]21 [Compound 301] | > 10 | > 10 | > 10 | > 10 | > 10 | > 10 | > 10 | 1 to 10 | > 10 | > 10 | > 10 |
| CN1C[C@@H]2[C@H](C1)[C@H]2N(C)c1ccc(-c2ccc(-c3cn[nH]c3)c3cn[nH]c23)nn1 [Compound 302] | > 10 | > 10 | > 10 | > 10 | > 10 | > 10 | > 10 | 1 to 10 | > 10 | > 10 | > 10 |
| CN(C)[C@H]1[C@@H]2CN(c3ccc(-c4ccc(-c5cn[nH]c5)c5cn[nH]c45)nn3)C[C@@H]21 [Compound 303] | 1 to 10 | 1 to 10 | > 10 | > 10 | > 10 | > 10 | 1 to 10 | 1 to 10 | > 10 | > 10 | > 10 |
| c1n[nH]cc1-c1ccc(-c2ccc(N3CC[C@@]45CCN[C@@H]4CC[C@@H]35)nn2)c2[nH]ncc12 [Compound 304] | > 10 | 1 to 10 | > 10 | > 10 | > 10 | > 10 | 1 to 10 | 1 to 10 | > 10 | > 10 | > 10 |

Reference: patent US20240368163A1, “COMPOUNDS AND METHODS FOR MODULATING SPLICING” (REMIX THERAPEUTICS INC., priority 2021, published 2024)
